Results: patent publication US9023851B2 (Merck Patent GmbH, priority 2010, dated 2015)

Assays:
Format in all cases: biochemical
Src = target: T1, Src (Homo sapiens, UniProt P12931); assay: cSrc enzymatic assay (Caliper LifeSciences technology)
T1 construct: purchased Carna Bioscience, Kobe, Japan
Procedure: (§1) Enzymatic Assays Using the Caliper LifeSciences Technology
(§2) The assays described here are performed on the Caliper Life Sciences LC3000 system This technology provides data on enzyme activity via measurement of the relative amounts of phosphorylated or unphosphorylated fluorescently labelled substrate peptide at the end of an enzymatic reaction. These different states of peptide are resolved by applying a potential difference across the sample. The presence of the charged phosphate group on the product (as opposed to the substrate) causes a different peptide mobility between the two peptides. This is visualized by excitation of the fluorescent label on the substrate and product peptides and represented as peaks within the analysis software.
(§3) In order to measure inhibitor activity of kinase inhibitors on this technology, a TTP Mosquito liquid handling instrument is used to place 0.25 ul of the appropriate concentration of inhibitor in 100% DMSO (for a dose response curve calculation) into each well of a 384-well plate. To this reaction components are added to a final volume of 25 ul. The table below indicates the sequences and concentrations for the assays described in this report. Standard components are 1 mM DTT (Sigma, D0632), 1 mM MgCl2 (Sigma, M1028), 100 mM HEPES pH 7.5 (Calbiochem, 391338), 0.015% Brij-35 (Sigma, B4184).
(§4) The reaction is incubated for 90 min at 25 C, and then stopped by the addition of 70 ul of Stop buffer (100 mM HEPES pH 7.5, 0.015% Brij-35, 10 mM EDTA (Sigma, E7889)).
(§5) The plate is read on a Caliper LC 3000 in an Off-Chip mobility shift assay format, on a 12-sipper chip. Unphosphorylated substrate and phosphorylated product peptide resolve as separate peaks allowing direct measurement of percentage of conversion of substrate to product. The percent conversion can be plotted against concentration of inhibitor to produce a sigmoidal dose response curve, from which an IC50 can be calculated using GeneData Condoseo or a similar product. Cellular activity assays

KDR = target: T2, KDR (Homo sapiens, UniProt P35968); assay: KDR enzymatic assay (Caliper LifeSciences technology)
T2 construct: purchased BPS Bioscience, CA, USA
Procedure: as §1, §2, §3, §4, §5

Syk = target: T3, Syk (Homo sapiens, UniProt P43405); assay: Syk enzyme assay (flash plate / Caliper mobility shift)
T3 construct: purchased BPS Bioscience, CA, USA
Procedure: The kinase assay is performed either as 384-well Flashplate assay (for e.g. Topcount measurement) or as 384-well Image-Flashplate assay (for LEADseeker measurement).
2.5 nM SYK, 400 nM Biotin-Aha-Aha-[…] and 10 μM ATP (spiked with 0.3 μCi 33P-ATP/well) are incubated in a total volume of 50 μl (60 mM Hepes, 10 mM MgCl2, 1.2 mM Dithiothreitol, 0.02% Brij35, 0.1% BSA, pH 7.5) with or without test compound for 1 hours at 30° C. The reaction is stopped with 25 μl 200 mM EDTA. After 30 Min at 30° C. the liquid is removed and each well washed thrice with 100 μl 0.9% sodium chloride solution. Non-specific reaction is determined in presence of 0.1 μM Staurosporine. Radioactivity is measured with Topcount (when using Flashplates) or with LEADseeker (when using Image-Flashplates) respectively. Results (e.g. IC50-values) are calculated with program tools provided by the IT-department (e.g. Symyx Assay Explorer, Genedata Screener).
as §1, §2, §3, §4, §5

ZAP-70 = target: T4, ZAP-70 (Homo sapiens, UniProt P43403); assay: Zap70 enzymatic assay (Caliper LifeSciences technology)
T4 construct: purchased BPS Bioscience, CA, USA
T4 sequence (P43403 1-619): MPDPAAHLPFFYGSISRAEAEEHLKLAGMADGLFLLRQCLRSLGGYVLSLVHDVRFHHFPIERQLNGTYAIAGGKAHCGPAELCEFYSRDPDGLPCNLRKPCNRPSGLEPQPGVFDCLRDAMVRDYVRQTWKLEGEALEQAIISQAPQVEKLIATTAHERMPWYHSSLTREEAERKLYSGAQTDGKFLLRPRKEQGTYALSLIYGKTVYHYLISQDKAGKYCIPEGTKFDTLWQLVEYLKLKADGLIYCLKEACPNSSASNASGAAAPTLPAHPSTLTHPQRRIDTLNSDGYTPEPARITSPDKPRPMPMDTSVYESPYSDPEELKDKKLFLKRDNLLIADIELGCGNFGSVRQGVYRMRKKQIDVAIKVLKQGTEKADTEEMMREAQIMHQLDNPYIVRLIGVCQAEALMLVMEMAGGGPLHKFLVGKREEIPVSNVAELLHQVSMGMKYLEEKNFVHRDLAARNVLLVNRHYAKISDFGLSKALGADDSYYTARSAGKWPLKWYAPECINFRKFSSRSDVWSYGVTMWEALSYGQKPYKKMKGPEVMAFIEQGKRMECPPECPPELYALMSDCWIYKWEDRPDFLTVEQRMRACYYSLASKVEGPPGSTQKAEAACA
Procedure: as §1, §2, §3, §4, §5

T1 sequence (P12931 whole entry): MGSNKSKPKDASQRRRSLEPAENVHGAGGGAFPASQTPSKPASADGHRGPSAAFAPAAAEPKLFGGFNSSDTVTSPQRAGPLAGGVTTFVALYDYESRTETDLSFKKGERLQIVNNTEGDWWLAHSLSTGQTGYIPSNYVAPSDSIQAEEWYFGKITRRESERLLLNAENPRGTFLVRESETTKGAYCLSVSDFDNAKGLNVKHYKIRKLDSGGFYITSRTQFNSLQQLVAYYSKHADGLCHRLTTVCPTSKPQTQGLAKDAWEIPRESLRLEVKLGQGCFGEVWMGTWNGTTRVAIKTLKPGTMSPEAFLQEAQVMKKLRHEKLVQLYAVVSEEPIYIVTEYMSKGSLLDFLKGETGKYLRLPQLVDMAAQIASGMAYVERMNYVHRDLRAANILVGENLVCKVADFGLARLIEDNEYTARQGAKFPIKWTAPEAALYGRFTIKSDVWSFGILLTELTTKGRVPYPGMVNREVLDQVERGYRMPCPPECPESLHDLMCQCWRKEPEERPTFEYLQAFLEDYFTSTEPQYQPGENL
T2 sequence (P35968 20-1356): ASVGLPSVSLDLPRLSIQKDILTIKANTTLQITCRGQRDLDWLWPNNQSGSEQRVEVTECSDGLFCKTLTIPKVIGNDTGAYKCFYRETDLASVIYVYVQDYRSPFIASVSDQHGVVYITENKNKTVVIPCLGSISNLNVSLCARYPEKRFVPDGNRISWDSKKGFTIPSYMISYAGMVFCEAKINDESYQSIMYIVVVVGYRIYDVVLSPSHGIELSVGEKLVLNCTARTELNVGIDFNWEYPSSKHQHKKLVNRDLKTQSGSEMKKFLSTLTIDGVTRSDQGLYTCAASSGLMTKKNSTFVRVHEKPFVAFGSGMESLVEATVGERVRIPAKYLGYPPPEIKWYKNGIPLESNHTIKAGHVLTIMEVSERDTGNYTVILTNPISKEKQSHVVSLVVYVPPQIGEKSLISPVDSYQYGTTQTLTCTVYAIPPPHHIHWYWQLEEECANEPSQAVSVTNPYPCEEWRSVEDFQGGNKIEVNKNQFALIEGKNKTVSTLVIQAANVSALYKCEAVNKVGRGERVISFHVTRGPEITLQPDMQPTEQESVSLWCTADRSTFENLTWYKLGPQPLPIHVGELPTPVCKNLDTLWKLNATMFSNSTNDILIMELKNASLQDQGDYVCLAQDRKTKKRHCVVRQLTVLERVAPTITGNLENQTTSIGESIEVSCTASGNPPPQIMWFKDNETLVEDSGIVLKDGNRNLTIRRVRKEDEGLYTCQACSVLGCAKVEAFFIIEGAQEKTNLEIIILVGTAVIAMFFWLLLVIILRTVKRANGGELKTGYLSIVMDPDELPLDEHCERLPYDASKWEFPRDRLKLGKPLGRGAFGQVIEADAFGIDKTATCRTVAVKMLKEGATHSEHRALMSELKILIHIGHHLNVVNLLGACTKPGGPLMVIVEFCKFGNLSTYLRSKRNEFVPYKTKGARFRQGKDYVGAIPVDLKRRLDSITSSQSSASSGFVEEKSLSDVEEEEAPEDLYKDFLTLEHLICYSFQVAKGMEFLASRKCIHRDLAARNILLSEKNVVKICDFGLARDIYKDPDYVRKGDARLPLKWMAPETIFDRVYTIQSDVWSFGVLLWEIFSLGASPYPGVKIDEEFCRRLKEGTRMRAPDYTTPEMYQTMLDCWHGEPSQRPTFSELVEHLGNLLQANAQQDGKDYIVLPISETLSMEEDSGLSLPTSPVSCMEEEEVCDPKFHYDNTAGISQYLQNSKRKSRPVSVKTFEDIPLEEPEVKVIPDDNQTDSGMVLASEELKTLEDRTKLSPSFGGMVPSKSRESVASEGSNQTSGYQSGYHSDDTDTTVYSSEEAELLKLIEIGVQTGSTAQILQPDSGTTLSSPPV

SMILES | IC50 (Src) [µM] | IC50 (KDR) [µM] | IC50 (Syk) [µM] | IC50 (ZAP-70) [µM]
COc1cc(Nc2nc3c(NCCN)nccn3n2)cc(OC)c1 [Example C29, N^8-(2-Amino-ethyl)-N^2-(3,5-dimethoxy-phenyl)-[1,2,4]triazolo[1,5-a]pyrazine-2,8-diamine] | 3 to 50 | 3 to 50 | 3 to 50 | –
COCC(O)Cn1cc(-c2nccn3nc(Nc4ccc(N5CCOCC5)cc4)nc23)cn1 (stereo not drawn) [Example D6, 1-Methoxy-3-{4-[2-(4-morpholin-4-yl-phenylamino)-[1,2,4]triazolo[1,5-a]pyrazin-8-yl]-pyrazol-1-yl}-propan-2-ol] | 0.3 to 3 | 0.3 to 3 | 0.3 to 3 | 3 to 50
COc1cc(Nc2nc3c(NCCCN4CCOCC4)nccn3n2)cc(OC)c1 [Example C39, N^2-(3,5-Dimethoxy-phenyl)-N^8-(3-morpholin-4-yl-propyl)-[1,2,4]triazolo[1,5-a]pyrazine-2,8-diamine] | 3 to 50 | 3 to 50 | 3 to 50 | –
COc1cc(Nc2nc3c(Cl)nccn3n2)cc(OC)c1 [Example B2, 8-Chloro-[1,2,4]triazolo[1,5-a]pyrazin-2-yl-(3,5-dimethoxy-phenyl)-amine] | 3 to 50 | – | 3 to 50 | –
Cc1cc(C)cc(Nc2nc3c(NCCCN4CCOCC4)nccn3n2)c1 [Example C28, N^2-(3,5-Dimethyl-phenyl)-N^8-(3-morpholin-4-yl-propyl)-[1,2,4]triazolo[1,5-a]pyrazine-2,8-diamine] | 3 to 50 | 0.3 to 3 | 3 to 50 | –
COCCCNc1nccn2nc(Nc3cc(OC)cc(OC)c3)nc12 [Example C40, N^2-(3,5-Dimethoxy-phenyl)-N^8-(3-methoxy-propyl)-[1,2,4]triazolo[1,5-a]pyrazine-2,8-diamine] | 3 to 50 | 3 to 50 | 3 to 50 | –
COc1cc(Nc2nc3c(NCCCN(C)C)nccn3n2)cc(OC)c1 [Example C38, N^2-(3,5-Dimethoxy-phenyl)-N^8-(3-dimethylamino-propyl)-[1,2,4]triazolo[1,5-a]pyrazine-2,8-diamine] | 3 to 50 | 3 to 50 | 3 to 50 | –
COc1cc(Nc2nc3c(NCCCN4CCN(C)CC4)nccn3n2)cc(OC)c1 [Example C30, N^2-(3,5-Dimethoxy-phenyl)-N^8-[3-(4-methyl-piperazin-1-yl)-propyl]-[1,2,4]triazolo[1,5-a]pyrazine-2,8-diamine] | 3 to 50 | 3 to 50 | 3 to 50 | –
CN(C)CCCNc1nccn2nc(Nc3ccccc3)nc12 [Example C50, N^8-(3-Dimethylamino-propyl)-N^2-phenyl-[1,2,4]triazolo[1,5-a]pyrazine-2,8-diamine] | – | 3 to 50 | 3 to 50 | 3 to 50
Cc1cc(C)cc(Nc2nc3c(Cl)nccn3n2)c1 [Example B1, 8-Chloro-[1,2, 4]triazolo[1,5-a]pyrazin-2-yl-(3,5-dimethyl-phenyl)-amine] | – | 3 to 50 | 3 to 50 | 0.3 to 3

Further lines, results first:

IC50 (Src) [µM] | IC50 (KDR) [µM] | IC50 (Syk) [µM] | IC50 (ZAP-70) [µM] | SMILES
3 to 50 | 0.3 to 3 | 3 to 50 | – | c1ccc(Nc2nc3c(-c4cccnc4)nccn3n2)cc1 [Example C22, Phenyl-(8-pyridin-3-yl-[1,2,4]triazolo[1,5-a]pyrazin-2-yl)-amine]
3 to 50 | 0.3 to 3 | 0.3 to 3 | 3 to 50 | Cn1ccnc1Sc1ccc(Nc2nc3c(-c4ccccc4)nccn3n2)cc1Cl [Example C23, [3-Chloro-4-(1-methyl-1H-imidazol-2-ylsulfanyl)-phenyl]-(8-phenyl-[1,2,4]triazolo[1,5-a]pyrazin-2-yl)-amine]
< 0.3 | 0.3 to 3 | < 0.3 | < 0.3 | COc1cc(Nc2nc3c(-c4cccc5[nH]ncc45)nccn3n2)cc(OC)c1 [Example C303, (3,5-Dimethoxy-phenyl)-[8-(1H-indazol-4-yl)-[1,2,4]triazolo[1,5-a]pyrazin-2-yl]-amine]
3 to 50 | 3 to 50 | 3 to 50 | 3 to 50 | COCCCNc1nccn2nc(Nc3cccc(C)c3)nc12 [Example C32, N^8-(3-Methoxy-propyl)-N^2-m-tolyl-[1,2,4]triazolo[1,5-a]pyrazine-2,8-diamine]
0.3 to 3 | – | < 0.3 | 3 to 50 | COc1cc(Nc2nc3c(-c4ccc5cccnc5c4)nccn3n2)cc(OC)c1 [Example C264, (3,5-Dimethoxy-phenyl)-(8-quinolin-7-yl-[1,2,4]triazolo[1,5-a]pyrazin-2-yl)-amine]
3 to 50 | 3 to 50 | 3 to 50 | – | Cc1cc(C)cc(Nc2nc3c(-c4ccc(N5CCOCC5)cc4)nccn3n2)c1 [Example C11, (3,5-Dimethyl-phenyl)-[8-(4-morpholin-4-yl-phenyl)-[1,2,4]triazolo[1,5-a]pyrazin-2-yl]-amine]
3 to 50 | 3 to 50 | 3 to 50 | – | CN(C)CCCNc1nccn2nc(Nc3cccc(C(F)(F)F)c3)nc12 [Example C33, N^8-(3-Dimethylamino-propyl)-N^2-(3-trifluoromethyl-phenyl)-[1,2,4]triazolo[1,5-a]pyrazine-2,8-diamine]
0.3 to 3 | 0.3 to 3 | 0.3 to 3 | – | Cc1cc(C)cc(Nc2nc3c(-c4cccnc4)nccn3n2)c1 [Example C4, (3,5-Dimethyl-phenyl)-(8-pyridin-3-yl-[1,2,4]triazolo[1,5-a]pyrazin-2-yl)-amine]
0.3 to 3 | < 0.3 | < 0.3 | – | COc1cc(Nc2nc3c(-c4cccc(C(N)=O)c4)nccn3n2)cc(OC)c1 [Example C276, 3-[2-(3,5-Dimethoxy-phenylamino)-[1,2,4]triazolo[1,5-a]pyrazin-8-yl]-benzamide]
3 to 50 | 3 to 50 | 0.3 to 3 | – | FC(F)(F)c1cccc(Nc2nc3c(-c4cccnc4)nccn3n2)c1 [Example C20, (8-Pyridin-3-yl-[1,2,4]triazolo[1,5-a]pyrazin-2-yl)-(3-trifluoromethyl-phenyl)-amine]
0.3 to 3 | < 0.3 | < 0.3 | – | NC(=O)c1cccc(-c2nccn3nc(Nc4ccc(N5CCOCC5)cc4)nc23)c1 [Example C277, 3-[2-(4-Morpholin-4-yl-phenylamino)-[1,2,4]triazolo[1,5-a]pyrazin-8-yl]-benzamide]
3 to 50 | 3 to 50 | 3 to 50 | – | Cc1cccc(Nc2nc3c(NCCCN(C)C)nccn3n2)c1 [Example C46, N^8-(3-Dimethylamino-propyl)-N^2-m-tolyl-[1,2,4]triazolo[1,5-a]pyrazine-2,8-diamine]
0.3 to 3 | 0.3 to 3 | < 0.3 | – | COc1cc(Nc2nc3c(-c4cccc(CN)c4)nccn3n2)cc(OC)c1 [Example C114, [8-(3-Aminomethyl-phenyl)-[1,2,4]triazolo[1,5-a]pyrazin-2-yl]-(3,5-dimethoxy-phenyl)-amine]
